Experimental data reported in patent publication US6476007B2, “Isoform specific inhibition for treatment of pain and reduction of anesthetic threshold” (The Johns Hopkins University, priority 1999, dated 2002).
Structures can show the parent of a compound that is named as a salt. Where two headings read alike, the source gives them in different places.

Legend:
[1] = test system: PKGIα expression in the spinal cord; assay: Western blot of PKGIα in lumbar enlargement segments 96 h after formalin injection; format: in vivo, rat; conditions: 96 h formalin-treated rats, not significant (p>0.05)
Method: Thirty five rats were sacrificed by decapitation at 0 h (normal control), 24 h, 48 h and 96 h after injection of saline (100 μl) or formalin (100 μl, 4%) into a hind paw. Lumbar enlargement segments of the spinal cord were dissected, quickly frozen in liquid nitrogen and stored at −80° C. for later use. Frozen tissues were homogenized in the homogenization buffer (50 mM Tris-HCl, 0.1 mM EDTA, 0.1mM EGTA, 1 mM phenylmethylsulfonyl fluoride, 1 μM leupeptin, 2 μM pepstatin A, 0.1% 2-mercaptoethanol). The crude homogenate was centrifuged at 4° C. for 15 min at 3,000×g. The supernatants (100 μg) were heated for 5 min at 90° C. and then loaded onto 4% stacking/7.5% separating SDS-polyacrylamide gels. The proteins were electrophoretically transferred onto nitrocellulose membrane and blocked with 2% non-fat dry milk and subsequently incubated for 1 h with polyclonal rabbit anti-PKGIα antibody (1:500) and with monoclonal mouse anti-endothelium NOS (eNOS) antibody (1:500) (Transduction Labs). Normal lung was used as a positive control. Specific proteins were detected using horseradish peroxidase-conjugated anti-rabbit or anti-mouse secondary antibody and visualized using chemiluminescence reagents provided with the ECL kit (Amersham Life Sciences Inc, II) and exposure to film. The intensity of blots was quantified with densitometry (Personal Densitometer/IMAGEQUANT; Molecular Dynamics).
In some experiments, rats were injected intraperitoneally (i.p.) with an NMDA receptor antagonist, MK-801 (RBI, MA), a selective neuronal NOS inhibitor (nNOS), 7-Nitroindazole (7-NI, Alexis Biochemicals, CA) and a selective sGC inhibitor, 1H-[1,2,4]oxadiazolo[4,3-a]quinoxalin-1-one (ODQ, Alexis Biochemicals, CA), each day for 4 days (96 h). The doses of MK-801, 7-NI and ODQ used in the present study were determined regarding to the previous studies (29-31). The experiments were divided into five groups. Group 1 (n=4) as control: i.p. injection of saline (0.9%, 2 ml) or peanut oil (2 ml) 30 min prior to the subcutaneous injection of saline (0.9%, 100 μl). […]

[2] = test system: mechanical allodynia induced by capsaicin; conditions: Sluka and Willis (1997); cited from earlier work
[3] = test system: NMDA-induced facilitation of the tail-flick reflex; assay: NMDA-induced facilitation of the tail-flick reflex; format: in vivo, rat
tail-flick latency = assay: Radiant heat tail-flick test, agents given alone intrathecally; format: in vivo, rat; conditions: for maximal decrease in the tail-flick latency: compared to saline-treated group
[4] = Subjective observation of animal behavior after intrathecal administration; conditions: period of 2 h, compared with control animals
[5] = test system: NMDA-produced facilitation of the tail flick reflex; conditions: pretreatment, spinal cord; Meller et al., 1992a; cited from earlier work
[6] = test system: formalin-induced c-fos expression in the spinal cord; conditions: for number of Fos-positive neurons in laminae I-II, III-IV and V-VI: vs water pretreated rats; for mean reduction in number of fos-positive neurons per section: vs control group, p<0.05
Method: For Fos immunohistochemistry, rats were perfused one hour after the behavioral test was done as described below. The lumbar spinal cord was removed and cut into 30 μm transverse sections. Sections were processed following the above-mentioned procedures except that the primary antibody was substituted with polyclonal rabbit anti-Fos antibody (1:4,000, Santa Cruz Biotechnology, Inc., CA).
(§1) The drug was dissolved in distilled water before administration. The animals were randomly assigned into four groups as follows: distilled water (control) (n=12); 10 μg of Rp-8-p-CPT-cGMPS (n=6); 20 μg of Rp-8-p-CPT-cGMPS (n=6); 30 μg of Rp-8-p-CPTc-GMPS (n=6). The drug solution was injected intrathecally in a volume of 10 μl, followed by an injection of 10 μl of distilled water to flush the catheter. Fifteen minutes later, formalin (100 μl, 4%) was injected into a hind paw of the rat. In addition, four rats were alone treated intrathecally with Rp-8-p-CPT-cGMPS (30 μg) and another four rats were normal without any treatment.

[7] = test system: formalin-induced pain behavior; conditions: for reduction of the number of flinches and shakes evoked by formalin: 30 μg intrathecal
Method: The rats were implanted with an intrathecal catheter under pentobarbital anesthesia. A polyethylene (PE-10) tube was inserted into the subarachnoid space at the rostral level of the spinal cord lumbar enlargement through an incision at the atlanto-occipital membrane according to the method of Yaksh and Rudy (27). The animals were allowed to recover for 7 to 10 days before being used experimentally. Rats showing neurological deficits postoperatively were discarded.
as §1
Immediately following the formalin injection, each individual rat was placed in a transparent cage for observation of the formalin-injected paw. The pain-related behaviors, flinches and shakes, were assessed for the next 60 min by an experimenter who was unaware of the group assignment. The observational session was divided into two periods: a phasic period (0-10 min) and a tonic period (10-60 min). The mean number of flinches and shakes for each period of each treatment group was determined

[8] = test system: NOC-12-induced decrease in the tail-flick latency; conditions: for effect on NOC-12-induced decrease in the tail-flick latency: tested 30 and 60 min, p<0.01
Method: Rats were anesthetized by intraperitoneal injection of pentobarbital sodium (45 mg/kg). Chronic intrathecal catheters were inserted by passing a polyethylene-10 (PE-10) catheter through an incision in the atlanto-occipital membrane to a position 8 cm caudal to the cistema at the level of the lumbar subarachinoid space. The animals were allowed to recover for a week before experiments were initiated. Rats showing neurologic deficits post-operatively were removed from the study.
Nociception was evaluated by the radiant heat tail-flick test with no anesthesia. Each rat was placed in an Animal Holder (IITC Life Science, CA, USA), 690 cm^3 in capacity with rubber stoppers in both ends with a rostral inlet and a caudal outlet. The tail of the rat protruded through the caudal hole. The tail-flick apparatus (Model 33B Tail Flick Analgesy Meter, IITC Life Science, CA, USA) generated a beam of radiant heat which was focused on the underside of the tail, 5 cm from the tip. […] Nociception was assessed by the prolongation of the time required to induce tail-flick after applying radiant heat to the skin of the tail. The latency of reflexive removal of the tail from the heat was measured automatically to the nearest 0.01 s. Tail-flick latency was measured six times and the basal latency was defined as the mean of the last five times. The tail-flick data are expressed as percentage change calculated by the formula: (trial latency—baseline latency)/(baseline latency)×100%.
The drug solution was injected intrathecally in a volume of 10 μl, followed by an injection of 10 μl of saline to flush the catheter.

[9] = 100 mg/kg i.p. in peanut oil each day for 4 days

With O=[N+]([O-])c1cccc2cn[nH]c12 [7-NI, 7-Nitroindazole] the “PKGIα protein level relative to group 1 (saline-injected control)” value [1, 9] was 1.17 fold.

In the case of COC(=O)[C@@]1(OC)C[C@H]2O[C@]1(C)n1c3ccccc3c3c4c(c5c6ccccc6n2c5c31)C(=O)N(C)C4 [KT5823], the “effect on mechanical allodynia induced by capsaicin” value [2] is given as “reversed”.

In the case of C[C@]12N[C@H](Cc3ccccc31)c1ccccc12 [MK-801, dizocilpine maleate], the “PKGIα protein level relative to group 1 (saline-injected control)” value ([1]; 2 mg/kg i.p. each day for 4 days) is reported as 1.13 fold and the “effect on NMDA-produced facilitation of the tail-flick reflex” value ([3]; prior intrathecal treatment, p<0.01) is reported as “completely abolished”.

In the case of CN[C@H](CC(=O)O)C(=O)O [NMDA, N-methyl-D-aspartate], the “tail-flick latency after intrathecal administration” value (tail-flick latency; intrathecal NMDA, baseline 6.58±0.57 seconds, p<0.01) is reported as 4.88 ± 0.41 s and the “changes in animal behavior on subjective observation” value (“changes in animal behavior” below) [4] is reported as “caudally directed biting and scratching behaviors”.

With CCNCCN(CC)N(O)N=O [NOC-12, N-ethyl-2-(1-ethyl-2-hydroxy-2-nitrosohydrazino)ethanamine] the “maximal decrease in the tail-flick latency” value (from here on “maximal decrease”) (tail-flick latency; 10 μg intrathecal) was 5.4%, the “maximal decrease” value (tail-flick latency; 20 μg intrathecal, p<0.01) was 18.5% and the “maximal decrease” value (tail-flick latency; 30 μg intrathecal, p<0.01) was 24.9%. For the same compound, the “tail flick latency after maximal reduction” value (tail-flick latency; 30 μg intrathecal, baseline 6.53±0.28 seconds) was 4.65 ± 0.32 s, the “hyperalgesia 120 min after intrathecal injection” value (tail-flick latency; 120 min after intrathecal injection) was “no longer observed” and the “time of maximum effect on tail-flick latency” value (tail-flick latency; intrathecal, decrease seen from 15 to 90 min) was 60 min. For the same compound, the “changes in animal behavior” value [4] was “no obvious changes in animal behavior”.

For COC(=O)[C@@H](N)CCCNC(=N)N[N+](=O)[O-] [N^G-nitro-L-arginine methyl ester], the “effect on NMDA-produced facilitation of the tail flick reflex” value [5] is given as “completely abolished”.

With O=c1onc2cnc3ccccc3n12 [ODQ, 1H-[1,2,4]oxadiazolo[4,3-a]quinoxalin-1-one] the “PKGIα protein level relative to group 1 (saline-injected control)” value [1, 9] was 1.14 fold.

In the case of CCN(CC)CC.Nc1nc2c(nc(Sc3ccc(Cl)cc3)n2[C@@H]2O[C@@H]3COP(O)(=S)O[C@H]3[C@H]2O)c(=O)[nH]1 (stereo partly drawn) [Rp-8-p-CPT-cGMPS, Rp-8-[(4-Chlorophenyl)thio]-cGMPS triethylamine], the “number of Fos-positive neurons in laminae I-II, III-IV and V-VI” value ([6]; 20 μg intrathecal) is reported as “significantly decreased”, the “mean reduction in number of fos-positive neurons per section” value (“mean reduction in number … per section” for short) ([6]; 30 μg intrathecal, neck of dorsal horn) is reported as 51% and the “mean reduction in number … per section” value ([6]; 30 μg intrathecal, nucleus proprius) is reported as 30%. The “mean reduction in number … per section” value ([6]; 30 μg intrathecal, superficial laminae) was 29%, the “number of Fos-positive neurons in laminae I-II, III-IV and V-VI” value ([6]; 30 μg intrathecal) was “significantly decreased” and the “number of Fos-positive neurons in laminae VII-X” value ([6]; intrathecal 10, 20 and 30 μg, vs water) was “no significant reduction”. The “Fos-positive neurons in the spinal cord” value ([6]; treatment with the agent only (30 μg intrathecal), no formalin) was “no Fos-positive neurons”, the “effect on the baseline tail-flick latency” value (tail-flick latency; 7.5, 15 and 30 μg given alone, 15 to 120 min after administration, p>0.05) was “no significant effect” and the “changes in animal behavior” value [4] was “no obvious changes in animal behavior”. The “effect on the formalin response” value ([7]; 10 μg intrathecal, phasic or tonic period) was “did not influence”, the “effect on the formalin-induced behavior” value ([7]; 20 μg intrathecal, phasic period) was “no effect” and the “suppression of the formalin-induced behavior” value ([7]; 20 μg intrathecal, tonic period, p<0.01) was 25%. For the same compound, the “reduction of the number of flinches and shakes evoked by formalin” value ([7]; phasic period (0-10 min), p<0.01) was 64%, the “reduction of the number of flinches and shakes evoked by formalin” value ([7]; tonic period (10-60 min), p<0.01) was 66% and the “effect on the NMDA-evoked facilitation of the tail-flick reflex” value ([3]; 7.5 μg intrathecal, p>0.05) was “failed to produce significant effect”. The “suppression of the NMDA-induced decrease of the tail-flick latency” value ([3]; 15 μg intrathecal prior administration, p<0.01) was 13.3%, the “suppression of the NMDA-induced decrease of the tail-flick latency” value ([3]; 30 μg intrathecal prior administration, p<0.01) was 20.7% and the “effect on the hyperalgesia induced by NOC-12” value ([8]; 7.5 μg intrathecal, 30 μg NOC-12, p>0.05) was “did not influence”. The “effect on NOC-12-induced decrease in the tail-flick latency” value ([8]; 15 μg intrathecal 10 min prior to 30 μg NOC-12) was “significantly blocked” and the “effect on NOC-12-induced decrease in the tail-flick latency” value ([8]; 30 μg intrathecal 10 min prior to 30 μg NOC-12) was “significantly blocked”.

For CN(C)c1ccc2nc3ccc(=[N+](C)C)cc-3sc2c1 [methylene blue], the “effect on NMDA-produced facilitation of the tail flick reflex” value [5] is listed as “completely abolished”.
